{"source": "patent US20200399392A1", "about": "“INHIBITORS OF PLA2-G1B COFACTORS FOR TREATING CANCER” (priority 2018, published 2020)", "key": {"pSTAT5 NT in CD4 T cells": {"tested_on": "pSTAT5 NT in CD4 T cells", "experiment": "PLA2-GIB bioassay on CD4 T cells: pSTAT5 nuclear translocation in response to IL-7, confocal microscopy", "assay_type": "cell-based, human", "conditions": "for nuclear translocation of phosphoSTAT5 (pSTAT5 NT) induced by IL-7: buffer, FIG. 1A; for pSTAT5 NT in response to IL-7: FIG. 2; for effect on pSTAT5 NT: FIG. 5B", "from_the_text": "Purification of Human CD4 T-lymphocytes—Venous blood was obtained from healthy volunteers through the EFS (Etablissement Français du Sang, Centre Necker-Cabanel, Paris). CD4 T-cells were purified from whole blood using RosetteSep Human CD4+ T cell Enrichment Cocktail (Stem Cell, 15062). This cocktail contains mouse and rat monoclonal antibodies purified from mouse ascites fluid or hybridoma culture supernatant, by affinity chromatography using protein A or Protein G sepharose. These antibodies are bound in bispecific tetrameric antibody complexes which are directed against cell surface antigens on human hematopoietic cells (CD8, CD16, CD19, CD36, CD56 CD66b, TCRγ/δ) and glycophorin A on red blood cells. The rosetteSep antibody cocktail crosslinks unwanted cells in human whole blood to multiple red blood cells, forming immunorosettes. This increases the density of unwanted cells, such that they pellet along with the free red blood cells when centrifuged over a buoyant density medium such as lymphocytes separation medium (Eurobio, CMSMSL01-01).\nWhole blood was incubated with RosetteSep Human CD4+ T cell Enrichment Cocktail at 50 μl/ml for 20 minutes at room temperature under gentle shaking (100 rpm), diluted with an equal volume of PBS+2% foetal bovine serum (FBS) and mixed gently. The diluted samples were centrifuged 20 minutes at 1200×g on top of lymphocytes separation medium. The enriched cells were then collected from the density medium at plasma interface and washed twice with PBS+2% FBS. Cells were subsequently resuspended in RPMI 1640 medium (Lonza) supplemented with 5% FBS, 50 mM HEPES pH 7.4, glutamine, penicillin, streptomycin and fungizone (complete medium), counted with a Moxi Z mini automated cell counter (ORFLO, MXZ000). Cells suspension was adjusted at 7×10^6 cells/ml and equilibrated at least 2 h at 37° C. in a 5% CO2 humidified atmosphere.\nThe enriched CD4-T cell population was controlled by flow cytometry on a cytoflex (Beckman coulter). The quiescence of recovered CD4 T-cells was controlled by the low level of IL-2Rα (CD25)."}, "gC1qR": {"biological_target": "T1, gC1qR (Homo sapiens, UniProt Q07021)", "T1 sequence (Q07021 74-282)": "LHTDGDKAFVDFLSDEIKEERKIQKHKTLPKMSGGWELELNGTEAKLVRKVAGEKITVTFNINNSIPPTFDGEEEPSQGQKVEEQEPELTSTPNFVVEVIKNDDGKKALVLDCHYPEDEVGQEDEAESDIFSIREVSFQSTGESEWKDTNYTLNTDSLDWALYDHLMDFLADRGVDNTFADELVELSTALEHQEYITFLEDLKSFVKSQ", "experiment": "gC1qR-peptides binding assay (ELISA on microplates)", "conditions": "peptide coated, His-tag-gC1qR 0 to 3 μg/well, FIG. 12", "procedure": "The unbound protein was removed; the wells washed 2× with TBST (20 mM Tris-HCl pH 7.5, 150 mM NaCl, and 0.05% Tween-20) and the unreacted sites blocked by incubation (30 min, room temp) with 300 μl of 3% BSA in TBST. After washing (2× with TBST), the microtiter plate bound peptides was incubated (2 h, room temp.) with different amount of His-tag-gC1qR ranging from 0 to 3 μg/well in triplicate. After washing (5 times with TBST), 100 μl of anti-His tag-HRP antibody (1:1000; 71840-3, Merck) in 3% BSA in TBST was added per well and incubated for 2 h at room temperature. Microplates wells were then washed (5 times with TBST) and 100 μl of TMB ELISA substrate standard solution (UP664781, Interchim) was added per well. Reaction was stopped with 100 μl per well of a H2SO4 solution at 0.16M and OD at 450 nm was measured on a microplate reader (Tecan Infinite M1000 Pro).\nA scrambled peptide or a control peptide were used as control."}, "PLA2-GIB [1]": {"tested_on": "PLA2-GIB", "experiment": "PLA2-GIB enzymatic assay on [3H] arachidonic acid labelled CD4 T cells", "assay_type": "cell-based, human", "conditions": "SA protein A alone at 10, 25 and 50 μg/ml, FIG. 9A", "procedure": "PLA2-GIB enzymatic assay on [3H] arachidonic acid labelled CD4 T cells or Jurkat E6.1 T cells—Purified CD4 T-cells were incubated for 16 h at 2×10^6 cells/ml with 1 μCi/ml of arachidonic acid [5,6,8,9,11,14,15-^3H(N)] (Perkin Elmer, NET298Z250UC) in RPMI 1640 medium (Lonza) supplemented with 10% FBS, 50 mM HEPES pH 7.4, glutamine, penicillin, streptomycin and fungizone at 2 ml/well in 6-well plates at 37° C. in a 5% CO2 humidified atmosphere. Cells were washed twice with RPMI with 10% FBS by centrifugation at 580×g for 10 minutes at room temperature and then frozen in 90% FBS 10% DMSO at 10^7 cells/ml/vial at −80° C. […]\nTo test PLA2-GIB activity on [3H] arachidonic acid labelled CD4 T lymphocytes, cells were unfrozen in 10% FBS RPMI preheated at 37° C. by centrifugation at 580×g for 10 minutes at room temperature, washed twice in 2.5% FBS RPMI, and equilibrated at 2×10^5 CD4 T cells/400 μl/well in 24-well polystyrene plates for 1 h30 at 37° C. in a 5% CO2 humidified atmosphere. […] The [3H] arachidonic acid released in cell supernatant was quantified in 300 μl with 16 ml of Ultima gold (Perkin Elmer, 6013329) in low diffusion vials (Perkin Elmer, 6000477) on a counter (tri-Carb 2800 TR liquid scintillation analyzer, Perkin Elmer). […]"}, "PLA2-GIB [2]": {"tested_on": "PLA2-GIB", "experiment": "PLA2-GIB enzymatic assay on [3H] arachidonic acid labelled Jurkat E6.1 T cells", "assay_type": "cell-based, human", "conditions": "Jurkat E6.1 cells pretreated 21 h, 200 nM PLA2-GIB, FIG. 15", "procedure": "Jurkat E6.1 T cells (ECACC 88042803) or gC1qR KO Jurkat E6.1 T cells were incubated for 17 h at 5×10^5 cells/ml with 1 μCi/ml of arachidonic acid [5,6,8,9,11,14,15-^3H(N)] (Perkin Elmer, NET298Z250UC) in RPMI 1640 medium (Lonza) supplemented with 10% FBS, 50 mM HEPES pH 7.4, glutamine, penicillin, streptomycin and fungizone at 2 ml/well in 6-well plates at 37° C. in a 5% CO2 humidified atmosphere. Cells were washed twice with RPMI with 10% FBS by centrifugation at 300×g for 10 minutes at room temperature and then frozen in 90% FBS 10% DMSO at 10^7 cells/ml/vial at −80° C. Percent of [3H] arachidonic acid in CD4 T cells is the (1 minus ratio of [3H] arachidonic acid in the supernatant of CD4 T cells without cells (cpm/ml) on total [3H] arachidonic acid in supernatant and cells (cpm/ml).\nTo test PLA2-GIB activity on [3H] arachidonic acid labelled Jurkat E6.1 T lymphocytes, cells were unfrozen in 10% FBS RPMI preheated at 37° C. by centrifugation at 300×g for 10 minutes at room temperature, washed twice in 2.5% FBS RPMI, and equilibrated at 5×10^4 or 10^5 Jurkat E6.1 T cells/400 μl/well in 24-well polystyrene plates for 1 h30 at 37° C. in a 5% CO2 humidified atmosphere. Then HCV core solution or vehicle dilution in 2.5% FBS RPMI at 5.95 μM was mixed with an equal volume of a PLA2GIB solution at 630 nM or 2 μM 2.5% FBS RPMI and 100 μl were added per well at the same time for 2 h. For peptide treatments, cells were pretreated for 2 h, 4 h or 21 h, as indicated on figures, with 50 μl per well of peptide solutions at 110 μM or 55 μM in 2.5% FBS RPMI. Then 50 μl per well of PLA2-GIB at 630 nM or 2 μM 2.5% FBS RPMI or medium alone were added for 2 h. Cells and supernatant were collected in eppendorf tubes and centrifuged at 580×g for 10 minutes at room temperature. The [3H] arachidonic acid released in cell supernatant was quantified in 300 μl with 16 ml of Ultima gold (Perkin Elmer, 6013329) in low diffusion vials (Perkin Elmer, 6000477) on a counter (tri-Carb 2800 TR liquid scintillation analyzer, Perkin Elmer)."}, "[3]": {"biological_target": "gC1qR at the surface of human CD4 T cells / Jurkat E6.1 T cells (human) (UniProt Q07021)", "experiment": "cell-based or functional assay"}}}
{"molecule": "C1q: Complement component C1q from human serum (Sigma C1740), natural ligand of gC1qR", "values": [{"measurement": "inhibition of pSTAT5 NT", "setting": "pSTAT5 NT in CD4 T cells; C1q alone (10 μg/ml), FIG. 6A", "value": 40, "unit": "%"}]}
{"molecule": "NH2-WNWDSKILSDPAWNS—COOH (H-WNWDSKILSDPAWNS-OH) [Scrambled PEP3, scrambled version of PEP3 used as control]", "values": [{"measurement": "binding to gC1qR", "setting": "gC1qR", "value": "essentially do not"}]}
{"molecule": "PLA2-GIB: Human group IB pancreatic phospholipase A2, recombinant, produced in E. coli or in CHO-S", "values": [{"measurement": "nuclear translocation of phosphoSTAT5 (pSTAT5 NT) induced by IL-7", "setting": "pSTAT5 NT in CD4 T cells; 5 nM of PLA2-GIB alone", "value": "does not affect"}, {"measurement": "pSTAT5 NT in response to IL-7", "setting": "pSTAT5 NT in CD4 T cells; 5 nM of PLA2-GIB, compared with more than 92% without PLA2-GIB", "value": "biologically similar"}, {"measurement": "inhibition of pSTAT5 NT", "setting": "pSTAT5 NT in CD4 T cells; 75 nM of PLA2-GIB alone, FIG. 4", "value": 49, "unit": "%"}, {"measurement": "nuclear translocation of phosphoSTAT5 (pSTAT5 NT) induced by IL-7", "setting": "pSTAT5 NT in CD4 T cells; 75 nM of PLA2-GIB alone", "value": "significantly decreases"}, {"measurement": "pSTAT5 NT in response to IL-7", "setting": "pSTAT5 NT in CD4 T cells; 75 nM of PLA2-GIB", "value": 50, "unit": "%"}, {"measurement": "inhibition of pSTAT5 NT", "setting": "pSTAT5 NT in CD4 T cells; 250 nM of PLA2-GIB alone, FIG. 4", "value": 79, "unit": "%"}, {"measurement": "pSTAT5 NT in response to IL-7", "setting": "pSTAT5 NT in CD4 T cells; 250 nM of PLA2-GIB", "value": 10, "unit": "%"}]}
{"molecule": "NH2-PWNATWTQRTLDDIW—COOH (H-PWNATWTQRTLDDIW-OH) [CTL peptide, control peptide for PEP3]", "values": [{"measurement": "binding to gC1qR", "setting": "gC1qR", "value": "essentially do not"}, {"measurement": "effect on pSTAT5 NT", "setting": "pSTAT5 NT in CD4 T cells; peptide alone, without PLA2-GIB", "value": "no effect"}, {"measurement": "effect on pSTAT5 NT", "setting": "pSTAT5 NT in CD4 T cells; peptide with 5 nM of PLA2-GIB", "value": "no effect"}]}
{"molecule": "SA protein A: Staphylococcus aureus protein A, Sigma P6031", "values": [{"measurement": "release of [3H] arachidonic acids by CD4 T cells", "setting": "PLA2-GIB [1]", "value": "slightly induces"}]}
{"molecule": "NH2-SGEGGWSNGSLVDIM-COOH (H-SGEGGWSNGSLVDIM-OH) [HP Pg]", "values": [{"measurement": "PLA2-GIB activity vs scrambled PEP3", "setting": "PLA2-GIB [2]", "value": "significantly increased"}]}
{"molecule": "H-PWNASWSNKSLDDIW-OH", "note": "[PEP3 peptide NH2-…-COOH]", "values": [{"measurement": "inhibition of pSTAT5 NT in CD4 T cells, 0.025 ug/ml PEP3 with 5 nM PLA2-GIB", "setting": "[3]", "value": 18, "unit": "%"}, {"measurement": "inhibition of pSTAT5 NT in CD4 T cells, 0.5 ug/ml PEP3 with 5 nM PLA2-GIB", "setting": "[3]", "value": 55, "unit": "%"}, {"measurement": "inhibition of pSTAT5 NT in CD4 T cells, 2.5 ug/ml PEP3 with 5 nM PLA2-GIB", "setting": "[3]", "value": 51, "unit": "%"}]}
